Test results published in ChEMBL document CHEMBL1201862, “PubChem BioAssay data set” (2004).
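Each compound was tested at five concentrations against cells in 96-well plates for 48 hours. GI50: concentration for 50% inhibition of growth.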 The source made the active and inactive calls. Cut-off read from the data, not from the text of the source: active = GI50 up to about 1.1 µM and inactive = higher.

Assays:
Assay in all cases: NCI-60 cell line screen, 48 h
786-0 = system: 786-0
A498 = system: A498
A549 = system: A549
ACHN = system: ACHN
CAKI-1 = system: CAKI-1
CCRF-CEM = system: CCRF-CEM
COLO 205 = system: COLO 205
DLD-1 = system: DLD-1
DMS-114 = system: DMS-114
DMS-273 = system: DMS-273
EKVX = system: EKVX
HCC 2998 = system: HCC 2998
HCT-116 = system: HCT-116
HCT-15 = system: HCT-15
HL-60 = system: HL-60
HOP-18 = system: HOP-18
HOP-92 = system: HOP-92
HT-29 = system: HT-29
IGROV-1 = system: IGROV-1
K562 = system: K562
KM-20L2 = system: KM-20L2
KM12 = system: KM12
LOX IMVI = system: LOX IMVI
LXFL 529 = system: LXFL 529
M14 = system: M14
M19-MEL = system: M19-MEL
MOLT-4 = system: MOLT-4
Malme-3M = system: Malme-3M
NCI-H226 = system: NCI-H226
NCI-H23 = system: NCI-H23
NCI-H460 = system: NCI-H460
NCI-H522 = system: NCI-H522
OVCAR-3 = system: OVCAR-3
OVCAR-4 = system: OVCAR-4
OVCAR-5 = system: OVCAR-5
OVCAR-8 = system: OVCAR-8
RPMI-8226 = system: RPMI-8226
RXF 393 = system: RXF 393
RXF 631 = system: RXF 631
SF-268 = system: SF-268
SF-295 = system: SF-295
SF-539 = system: SF-539
SK-MEL-28 = system: SK-MEL-28
SK-MEL-2 = system: SK-MEL-2
SK-MEL-5 = system: SK-MEL-5
SK-OV-3 = system: SK-OV-3
SN12C = system: SN12C
SNB-19 = system: SNB-19
SNB-75 = system: SNB-75
SNB-78 = system: SNB-78
SW-620 = system: SW-620
TK-10 = system: TK-10
U-251 = system: U-251
UACC-257 = system: UACC-257
UACC-62 = system: UACC-62
UO-31 = system: UO-31
HOP-62 = system: HOP-62
SR = system: SR
XF498 = system: XF498

Measured: GI50

COc1cc2ccnc([C@@H](OC(=O)c3ccccc3)c3ccc(OC)c(OC)c3OC)c2cc1OC
42.4 µM: HCT-15
inactive: 786-0 35.6 µM | A498 36.1 µM | A549 47.1 µM | ACHN 32.7 µM | CAKI-1 30.3 µM | CCRF-CEM 53.2 µM | COLO 205 48.5 µM | DLD-1 27.9 µM | DMS-114 33.1 µM | DMS-273 > 10 µM | EKVX > 100 µM | HCC 2998 36.5 µM | HCT-116 33.9 µM | HL-60 41.8 µM | HOP-18 > 100 µM | HOP-92 23.3 µM | HT-29 37.7 µM | IGROV-1 > 100 µM | K562 26.7 µM | KM-20L2 32.3 µM | KM12 36.9 µM | LOX IMVI 39.1 µM | LXFL 529 30.8 µM | M14 78.3 µM | M19-MEL 73.6 µM | MOLT-4 41.6 µM | Malme-3M 36.2 µM | NCI-H226 35.5 µM | NCI-H23 40.6 µM | NCI-H460 33.6 µM | NCI-H522 27.8 µM | OVCAR-3 27.8 µM | OVCAR-4 31 µM | OVCAR-5 23.8 µM | OVCAR-8 51.9 µM | RPMI-8226 54.3 µM | RXF 393 26.9 µM | RXF 631 50 µM | SF-268 52 µM | SF-295 21.2 µM | SF-539 47.5 µM | SK-MEL-28 59.6 µM | SK-MEL-2 60.4 µM | SK-MEL-5 23.1 µM | SK-OV-3 > 100 µM | SN12C 51.6 µM | SNB-19 53.1 µM | SNB-75 21.5 µM | SNB-78 50.5 µM | SW-620 36.5 µM | TK-10 75.5 µM | U-251 37.5 µM | UACC-257 > 100 µM | UACC-62 56.4 µM | UO-31 18.9 µM

C=CCSC[C@H](NC(=O)COc1ccccc1)C(=O)NC(C(=O)OCc1ccc([N+](=O)[O-])cc1)=C(C)C
65.5 µM: HCT-15
inactive: 786-0 > 100 µM | A498 12.2 µM | A549 62.1 µM | ACHN 54 µM | CCRF-CEM 45.5 µM | COLO 205 20.6 µM | DLD-1 > 100 µM | DMS-114 45.3 µM | DMS-273 50.4 µM | EKVX 43.7 µM | HCC 2998 > 100 µM | HCT-116 > 100 µM | HL-60 23.3 µM | HOP-18 > 100 µM | HOP-62 > 100 µM | HT-29 39.1 µM | IGROV-1 > 100 µM | K562 44.5 µM | KM-20L2 > 100 µM | KM12 73.5 µM | LOX IMVI 64.9 µM | LXFL 529 36.1 µM | M14 47.9 µM | M19-MEL 32.1 µM | MOLT-4 19.8 µM | Malme-3M > 100 µM | NCI-H226 28.6 µM | NCI-H460 49.5 µM | NCI-H522 26.4 µM | OVCAR-3 45.7 µM | OVCAR-4 62.2 µM | OVCAR-8 63 µM | RPMI-8226 39.2 µM | RXF 393 49.7 µM | RXF 631 90.8 µM | SF-268 > 100 µM | SF-295 50.8 µM | SK-MEL-28 > 100 µM | SK-MEL-2 > 100 µM | SK-MEL-5 27.6 µM | SK-OV-3 > 100 µM | SN12C > 100 µM | SNB-75 37.6 µM | SNB-78 63.2 µM | U-251 76.6 µM | UACC-257 52.4 µM | UACC-62 72.6 µM | UO-31 33.6 µM

Cc1cc(NCCCCCCNc2cc(C)nc3cc(N(C)C)ccc23)c2ccc(N(C)C)cc2n1
> 100 µM: HCT-15
inactive: 786-0 52.4 µM | A498 > 100 µM | A549 > 10 µM | ACHN 99.8 µM | CAKI-1 55.8 µM | CCRF-CEM 22.3 µM | DLD-1 39.3 µM | DMS-273 3.64 µM | EKVX > 100 µM | HCC 2998 22.4 µM | HCT-116 10.7 µM | HL-60 3.19 µM | HOP-62 54.2 µM | HT-29 36.1 µM | K562 3.97 µM | KM12 11.8 µM | M14 49.9 µM | M19-MEL 27.7 µM | MOLT-4 6.9 µM | Malme-3M 13.2 µM | NCI-H23 25.1 µM | NCI-H460 13.3 µM | NCI-H522 10.6 µM | OVCAR-3 57.1 µM | OVCAR-4 22.6 µM | OVCAR-5 22.4 µM | OVCAR-8 31 µM | RXF 393 > 100 µM | RXF 631 > 100 µM | SF-268 57.9 µM | SF-295 28.2 µM | SF-539 59.6 µM | SK-MEL-28 29.2 µM | SK-MEL-2 32.2 µM | SK-MEL-5 18.2 µM | SK-OV-3 12.3 µM | SN12C 6 µM | SNB-19 1.67 µM | SNB-75 10 µM | SR 11 µM | SW-620 28.6 µM | TK-10 > 100 µM | U-251 28.2 µM | UACC-257 31.6 µM | UACC-62 9.2 µM | UO-31 88.7 µM | XF498 13.7 µM
